Test results from PubChem BioAssay AID2060494 (Molecular Pharmacology Branch, DTP, NCI, 2025).
pIC50: −log10 of the molar value. Blank lines part the entries; values can stand above or below the molecule they belong to.

Tested on: 435261-313-R-J1-PDC complex spheroid viability
Experiment: Anticancer human tumor 435261-313-R-J1-PDC patient-derived colon adenocarcinoma cell line growth inhibition [GQUAD]
Conditions: for pIC50: curve of first compound; for viability, T/C: stronger effect = lower value
How it was run: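 Tumor cells were grown as complex spheroids with HUVEC endothelial cells and mesenchymal stem cells as stroma. G-quadruplex stabilizers were combined with targeted agents over half-log dilutions from near the clinical Cmax, or from 10 microM.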

[1] = second compound 0.0316 µM, first compound 0.0316 µM
[2] = second compound 0.0316 µM, first compound 0.1 µM
[3] = second compound 0.0316 µM, first compound 0.316 µM
[4] = second compound 0.0316 µM, first compound 1 µM
[5] = second compound 0.0316 µM, first compound 3.16 µM
[6] = second compound 0.0316 µM, first compound 10 µM
[7] = second compound 0.1 µM, first compound 0.0316 µM
[8] = second compound 0.1 µM, first compound 0.1 µM
[9] = second compound 0.1 µM, first compound 0.316 µM
[10] = second compound 0.1 µM, first compound 1 µM
[11] = second compound 0.1 µM, first compound 3.16 µM
[12] = second compound 0.1 µM, first compound 10 µM
[13] = second compound 0.316 µM, first compound 0.0316 µM
[14] = second compound 0.316 µM, first compound 0.1 µM
[15] = second compound 0.316 µM, first compound 0.316 µM
[16] = second compound 0.316 µM, first compound 1 µM
[17] = second compound 0.316 µM, first compound 3.16 µM
[18] = second compound 0.316 µM, first compound 10 µM
[19] = second compound 1 µM, first compound 0.0316 µM
[20] = second compound 1 µM, first compound 0.1 µM
[21] = second compound 1 µM, first compound 0.316 µM
[22] = second compound 1 µM, first compound 1 µM
[23] = second compound 1 µM, first compound 3.16 µM
[24] = second compound 1 µM, first compound 10 µM
[25] = second compound 3.16 µM, first compound 0.0316 µM
[26] = second compound 3.16 µM, first compound 0.1 µM
[27] = second compound 3.16 µM, first compound 0.316 µM
[28] = second compound 3.16 µM, first compound 1 µM
[29] = second compound 3.16 µM, first compound 3.16 µM
[30] = second compound 3.16 µM, first compound 10 µM
[31] = second compound 10 µM, first compound 0.0316 µM
[32] = second compound 10 µM, first compound 0.1 µM
[33] = second compound 10 µM, first compound 0.316 µM
[34] = second compound 10 µM, first compound 1 µM
[35] = second compound 10 µM, first compound 3.16 µM
[36] = second compound 10 µM, first compound 10 µM
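Further: spheroids exposed to the agents for seven days before readout.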
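Wherever viability, T/C is given: percent of vehicle control viability with DMSO wells as 100%.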

pIC50 (second compound 0.0316 µM): < 5.00
pIC50 (second compound 0.1 µM): < 5.00
pIC50 (second compound 0.316 µM): < 5.00
pIC50 (second compound 1 µM): > 7.50
pIC50 (second compound 3.16 µM): > 7.50
pIC50 (second compound 10 µM): > 7.50
SMILES: COc1cc(C2c3cc4c(cc3C(OC3OC5COC(C)OC5C(O)C3O)C3COC(=O)C23)OCO4)cc(OC)c1O (stereo unspecified) + Cc1cnc(CNC(=O)c2c(=O)c3ccc(N4CCCN(C)CC4)nc3n3c2sc2ccccc23)cn1
viability, T/C [1]: 77.6%
viability, T/C [2]: 59.1%
viability, T/C [3]: 60.8%
viability, T/C [4]: 56.3%
viability, T/C [5]: 55%
viability, T/C [6]: 54.2%
viability, T/C [7]: 86.6%
viability, T/C [8]: 63.6%
viability, T/C [9]: 54.2%
viability, T/C [10]: 60.7%
viability, T/C [11]: 47.1%
viability, T/C [12]: 54.5%
viability, T/C [13]: 48.3%
viability, T/C [14]: 60%
viability, T/C [15]: 53.1%
viability, T/C [16]: 53%
viability, T/C [17]: 51.8%
viability, T/C [18]: 50.7%
viability, T/C [19]: 31.6%
viability, T/C [20]: 38.1%
viability, T/C [21]: 39%
viability, T/C [22]: 43%
viability, T/C [23]: 34.3%
viability, T/C [24]: 35.6%
viability, T/C [25]: 16.7%
viability, T/C [26]: 16.3%
viability, T/C [27]: 11.1%
viability, T/C [28]: 12%
viability, T/C [29]: 19.7%
viability, T/C [30]: 5.43%
viability, T/C [31]: 0.14%
viability, T/C [32]: 0.13%
viability, T/C [33]: 0.12%
viability, T/C [34]: 0.12%
viability, T/C [35]: 0.2%
viability, T/C [36]: 0.14%

pIC50 (second compound 0.0316 µM): 6.77
pIC50 (second compound 0.1 µM): 6.86
pIC50 (second compound 0.316 µM): > 7.50
pIC50 (second compound 1 µM): > 7.50
pIC50 (second compound 3.16 µM): > 7.50
pIC50 (second compound 10 µM): > 7.50
SMILES: COc1cccc2c1C(=O)c1c(O)c3c(c(O)c1C2=O)CC(O)(C(=O)CO)CC3OC1CC(N)C(O)C(C)O1 (stereo unspecified) + Cc1cnc(CNC(=O)c2c(=O)c3ccc(N4CCCN(C)CC4)nc3n3c2sc2ccccc23)cn1
viability, T/C [1]: 66.9%
viability, T/C [2]: 48.1%
viability, T/C [3]: 46.4%
viability, T/C [4]: 26%
viability, T/C [5]: 1.47%
viability, T/C [6]: 2.7%
viability, T/C [7]: 64.9%
viability, T/C [8]: 53.1%
viability, T/C [9]: 37.9%
viability, T/C [10]: 21.9%
viability, T/C [11]: 1.96%
viability, T/C [12]: 2.36%
viability, T/C [13]: 48.4%
viability, T/C [14]: 50.5%
viability, T/C [15]: 44.8%
viability, T/C [16]: 11.5%
viability, T/C [17]: 0.48%
viability, T/C [18]: 1.34%
viability, T/C [19]: 28.8%
viability, T/C [20]: 35.5%
viability, T/C [21]: 26%
viability, T/C [22]: 0.13%
viability, T/C [23]: 0.11%
viability, T/C [24]: 0.36%
viability, T/C [25]: 15.4%
viability, T/C [26]: 19.2%
viability, T/C [27]: 3.74%
viability, T/C [28]: 0.1%
viability, T/C [29]: 0.13%
viability, T/C [30]: 0.2%
viability, T/C [31]: 0.13%
viability, T/C [32]: 0.19%
viability, T/C [33]: 0.2%
viability, T/C [34]: 0.16%
viability, T/C [35]: 0.19%
viability, T/C [36]: 0.19%

pIC50 (second compound 0.0316 µM): < 6.50
pIC50 (second compound 0.1 µM): < 6.50
pIC50 (second compound 0.316 µM): < 6.50
pIC50 (second compound 1 µM): > 9.00
pIC50 (second compound 3.16 µM): > 9.00
pIC50 (second compound 10 µM): > 9.00
SMILES: Cn1ncnc1[C@H]1c2n[nH]c(=O)c3cc(F)cc(c23)N[C@@H]1c1ccc(F)cc1 + Cc1cnc(CNC(=O)c2c(=O)c3ccc(N4CCCN(C)CC4)nc3n3c2sc2ccccc23)cn1
viability, T/C (second compound 0.0316 µM, first compound 0.000999 µM): 82.1%
viability, T/C (second compound 0.0316 µM, first compound 0.00316 µM): 60.3%
viability, T/C (second compound 0.0316 µM, first compound 0.00999 µM): 66.2%
viability, T/C [1]: 60.9%
viability, T/C (second compound 0.0316 µM, first compound 0.0999 µM): 72.1%
viability, T/C [3]: 62.9%
viability, T/C (second compound 0.1 µM, first compound 0.000999 µM): 59.5%
viability, T/C (second compound 0.1 µM, first compound 0.00316 µM): 60.5%
viability, T/C (second compound 0.1 µM, first compound 0.00999 µM): 47.1%
viability, T/C [7]: 57%
viability, T/C (second compound 0.1 µM, first compound 0.0999 µM): 59.4%
viability, T/C [9]: 62.4%
viability, T/C (second compound 0.316 µM, first compound 0.000999 µM): 58.9%
viability, T/C (second compound 0.316 µM, first compound 0.00316 µM): 57.8%
viability, T/C (second compound 0.316 µM, first compound 0.00999 µM): 55.4%
viability, T/C [13]: 53.1%
viability, T/C (second compound 0.316 µM, first compound 0.0999 µM): 49.6%
viability, T/C [15]: 53.4%
viability, T/C (second compound 1 µM, first compound 0.000999 µM): 42.4%
viability, T/C (second compound 1 µM, first compound 0.00316 µM): 46.8%
viability, T/C (second compound 1 µM, first compound 0.00999 µM): 59.2%
viability, T/C [19]: 49.8%
viability, T/C (second compound 1 µM, first compound 0.0999 µM): 47.1%
viability, T/C [21]: 46.9%
viability, T/C (second compound 3.16 µM, first compound 0.000999 µM): 17.9%
viability, T/C (second compound 3.16 µM, first compound 0.00316 µM): 18.4%
viability, T/C (second compound 3.16 µM, first compound 0.00999 µM): 12.7%
viability, T/C [25]: 23%
viability, T/C (second compound 3.16 µM, first compound 0.0999 µM): 20.4%
viability, T/C [27]: 11.9%
viability, T/C (second compound 10 µM, first compound 0.000999 µM): 0.24%
viability, T/C (second compound 10 µM, first compound 0.00316 µM): 11.3%
viability, T/C (second compound 10 µM, first compound 0.00999 µM): 0.24%
viability, T/C [31]: 0.21%
viability, T/C (second compound 10 µM, first compound 0.0999 µM): 0.18%
viability, T/C [33]: 9.04%
